Key:
[1] = tested on: hiPSC-derived neural crest-like cells; experiment: cMINC (UKN2) neural crest cell migration assay; type: cell-based, human; settings: listed under the metabolite
Method: (§1) Figure 6 The transfer of the metabolisation module to the neural crest cell migration assay (cMINC). (A) A schematic of the cMINC (circular migration of neural crest cells) assay. The cells were seeded around a central stopper to create a cell-free circular area. Migration was initiated 24 h after seeding by removing the stopper. This is defined as the day of migration (DoM) 0. On DoM 1, the cells were exposed to toxicants. After 24 h of exposure, both cell migration and viability were quantified, using automated high-content imaging. (B) Compatibility of the metabolisation module (preincubation with 500 µg/mL S9 at 37 °C for 2 h) with the cMINC assay: The setup was as described in Figure 4 and as exemplified in Figure 5A. No compound was added (solvent control). The S9 mixture (at 500 µg/mL ± NADPH) was added to the normal cell culture medium of the cMINC assay (so that the addition was 10% of the total volume). Data are from three independent experiments. (C,D) The concentration-dependent effects on migration were evaluated for metabolite mixtures generated from bromethalin (C) or chlorfenapyr (D). […] The arrows indicate the direction of sensitivity shift between NADPH-dependent and -independent metabolite mixtures, with accompanying fold change values. The concentrations are given as nominal concentrations of the parent compound. Abbreviations: n.s., not significant. TEXT PRINTED IN THE PICTURE: (C) Bromethalin: x30 | (D) Chlorfenapyr: x15
The MINC assay was performed as previously described. Briefly, 96-well plates were prepared by inserting a central 2 mm diameter stopper (Platypus Technologies, Madison, WI, USA) into pre-coated wells with a composite poly-L-ornithine (PLO; 10 µg/mL), fibronectin (1 µg/mL), and laminin (1 µg/mL) matrix. […] After a further 24 h (DoM 2), cell migration and viability were assessed. […] High content imaging was performed, and data were analysed using the RingAssay V1 software (http://invitrotox.uni-konstanz.de/, accessed on 3 February 2025). […]

[2] = tested on: hiPSC-derived neural crest-like cells; experiment: S9 metabolisation module followed by cMINC migration assay; type: cell-based, human; settings: for EC25 migration (+NADPH): metabolite mixture generated with NADPH; for EC25 migration (+NADPH) / EC25 migration (−NADPH): nominal concentration of parent; for EC25 migration (−NADPH): metabolite mixture generated without NADPH; for fold change of potency (EC25) between NADPH-independent and -dependent metabolite mixtures: potency increased with NADPH
Method: as §1
The MINC assay was performed as previously described. Briefly, 96-well plates were prepared by inserting a central 2 mm diameter stopper (Platypus Technologies, Madison, WI, USA) into pre-coated wells with a composite poly-L-ornithine (PLO; 10 µg/mL), fibronectin (1 µg/mL), and laminin (1 µg/mL) matrix. Cryopreserved human induced pluripotent stem cell (hiPSC)-derived neural crest-like cells were thawed and seeded at a density of 95,000 cells/cm^2 around the stopper to create a defined, cell-free circular area. The cells were cultured in N2-S medium supplemented with […] of the cytokines EGF and FGF. After 24 h, the stoppers were removed and the medium refreshed to initiate cell migration into the cell-free centre (defined as the day of migration, DoM 0). On DoM 1, the cells were exposed to test compounds by the addition of a 5× concentrated toxicant solution. After a further 24 h (DoM 2), cell migration and viability were assessed. The cells were stained with 0.5 µM calcein-AM and 1 µg/mL Hoechst 33342 (both from Sigma-Aldrich, Steinheim, Germany). High content imaging was performed, and data were analysed using the RingAssay V1 software (http://invitrotox.uni-konstanz.de/, accessed on 3 February 2025).
In the first step, matched technical replicates were averaged. […] For visualisation, GraphPad Prism 9 was used.
The supernatant was used further.

In the case of `O=C(c1ccccc1)c1ccc(O)cc1` [4-Hydroxybenzophenone], the “increase in potency of metabolite compared to parent (BMC25 ratio)” value [1] is reported as “over three”.

With `CN(c1c(Br)cc(Br)cc1Br)c1c([N+](=O)[O-])cc([N+](=O)[O-])cc1C(F)(F)F` [Bromethalin] the “EC25 migration (+NADPH)” value [2] was 26 nM, the “EC25 migration (−NADPH)” value [2] was 790 nM and the “fold change of potency (EC25) between NADPH-independent and -dependent metabolite mixtures” value [2] was “about 30 fold”.

For `CCOCn1c(-c2ccc(Cl)cc2)c(C#N)c(Br)c1C(F)(F)F` [Chlorfenapyr], the “EC25 migration (+NADPH)” value [2] was 600 nM, the “EC25 migration (−NADPH)” value [2] was 9000 nM and the “fold change of potency (EC25) between NADPH-independent and -dependent metabolite mixtures” value [2] was 15 fold.

For `N#Cc1c(-c2ccc(Cl)cc2)[nH]c(C(F)(F)F)c1Br` [Tralopyril], the “increase in potency of metabolite compared to parent (BMC25 ratio)” value [1] was 28 fold.
